Results: patent US4971966A, “Substituted pyrido(2,3-B) (1,4) benzodiazepin-6-ones, and medicaments containing these compounds” (Karl Thomae GmbH, priority 1986, dated 1990)
Read-outs that look alike come from different tables or passages of the source.

Tests used:
[1] = molecular target: muscarinic receptors, cerebral cortex; assay: Receptor binding assay in vitro, cerebral cortex (3H-NMS displacement); design: species or system male Sprague-Dawley rats; conditions: rat cerebral cortex homogenate; 0.3 nmolar 3H-NMS, 30° C., 45 min, pH 7.4
Description: The organ donors were male Sprague-Dawley rats with a body weight of 180-220 g. […] Finally, all the organs were processed in a potter homogeniser. […] The organ homogenates were incubated at a defined concentration of the radio-ligand and a series of concentrations of the non-radioactive test substances in Eppendorf centrifuge tubes at 30° C. The incubation lasted 45 minutes. The radioligand used was 0.3 nmolar ^3 H-N-methylscopolamine (^3 H-NMS). The incubation was stopped by addition of ice-cold buffer, followed by a vacuum filtration. The filters were washed with cold buffer, and their radioactivity was determined. This represents the total of specific and non-specific binding of ^3 H-NMS. The contribution of the non-specific binding was defined as that radioactivity which was bound in the presence of 1 micromolar quinuclidinyl benzylate. Determinations were always carried out in quadruplicate. The IC50 values of the unlabelled test substances were determined graphically.

[2] = molecular target: T1, muscarinic receptors, submandibular gland (Rattus norvegicus, UniProt P08483); assay: Receptor binding assay in vitro, submandibular gland (3H-NMS displacement); design: species or system male Sprague-Dawley rats; conditions: rat submandibular gland homogenate; 0.3 nmolar 3H-NMS, 30° C., 45 min, pH 7.4
T1 construct: After removal of the heart, submandibular gland and cerebral cortex; from tissue; host or cells: rat submandibular gland homogenate

[3] = test system: heart rate, conscious dog; assay: Effect increasing the heart rate in the conscious dog (tachycardia); assay type: in vivo; conditions: for ED50: Canis lupus familiaris, dose for increase of 50 beats/min.
Description: The substances were either injected intravenously or administered orally, and the heart rate was measured using a tachygraph. After a control period, increasing doses of the compound were administered in order to increase the heart rate. In each case, the next dose was administered when the effect of the preceding dose was no longer evident. The dose of a substance which brought about an increase of 50 beats/min. (ED50) was determined graphically. Each substance was examined on 3 to 5 dogs.

M2 = molecular target: T2, M2 (Rattus norvegicus, UniProt P10980); assay: M1/M2 selectivity in the rat: M2-activity (vagal bradycardia); assay type: in vivo, male THOM rats; conditions: iv, read-out: M2-activity (rat) ED50
T2 construct: The bradycardia induced by stimulation of the vagus; from tissue; host or cells: living male THOM rat, heart
T2 sequence (P10980 1-466): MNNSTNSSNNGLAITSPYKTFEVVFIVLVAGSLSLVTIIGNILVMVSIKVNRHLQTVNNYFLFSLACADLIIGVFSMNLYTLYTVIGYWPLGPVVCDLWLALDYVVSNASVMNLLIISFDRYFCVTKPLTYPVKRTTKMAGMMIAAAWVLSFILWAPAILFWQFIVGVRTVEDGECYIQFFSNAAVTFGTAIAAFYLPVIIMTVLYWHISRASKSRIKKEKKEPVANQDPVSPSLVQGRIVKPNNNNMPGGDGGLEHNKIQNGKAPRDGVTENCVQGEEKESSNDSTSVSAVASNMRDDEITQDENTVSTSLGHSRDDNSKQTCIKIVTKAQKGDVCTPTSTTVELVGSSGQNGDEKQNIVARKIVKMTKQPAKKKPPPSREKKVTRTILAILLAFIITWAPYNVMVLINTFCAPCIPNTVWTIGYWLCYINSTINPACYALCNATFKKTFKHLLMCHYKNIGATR
Description: The method which was used has been described by Hammer and Giachetti (Life Sciences 31, 2991-2998 (1982)). Five minutes after intravenous injection of increasing doses of the substance, either the right vagus was electrically stimulated (frequency: 25 Hz; pulse width: 2ms; stimulus duration: 30s; number of volts: supramaximal) or 0.3 mg/kg McN-A-343 was injected intravenously into male THOM rats. The bradycardia induced by stimulation of the vagus, and the increase in blood pressure caused by McN-A-343, were determined. The dose of the substances which reduced either the vagal bradycardia (M2) or the increase in blood pressure (M1) by 50% was determined graphically.

M1 = molecular target: T3, M1 (Rattus norvegicus, UniProt P08482); assay: M1/M2 selectivity in the rat: M1-activity (increase in blood pressure caused by McN-A-343); assay type: in vivo, male THOM rats; conditions: iv, read-out: M1-activity (rat) ED50
T3 construct: from tissue; host or cells: living male THOM rat, sympathetic ganglia (site by own knowledge)
T3 sequence (P08482 1-460): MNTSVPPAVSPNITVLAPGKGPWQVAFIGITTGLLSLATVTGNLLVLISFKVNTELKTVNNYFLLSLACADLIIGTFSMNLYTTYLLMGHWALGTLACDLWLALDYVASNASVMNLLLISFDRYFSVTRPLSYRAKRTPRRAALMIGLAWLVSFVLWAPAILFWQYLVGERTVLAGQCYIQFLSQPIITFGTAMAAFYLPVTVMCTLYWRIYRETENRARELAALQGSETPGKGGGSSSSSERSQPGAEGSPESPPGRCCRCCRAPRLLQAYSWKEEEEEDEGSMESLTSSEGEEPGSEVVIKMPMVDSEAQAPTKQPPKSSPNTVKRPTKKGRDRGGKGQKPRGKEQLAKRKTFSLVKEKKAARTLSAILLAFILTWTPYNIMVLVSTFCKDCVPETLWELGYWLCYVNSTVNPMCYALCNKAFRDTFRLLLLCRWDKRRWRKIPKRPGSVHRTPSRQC
Description: The dose of the substances which reduced either the vagal bradycardia (M2) or the increase in blood pressure (M1) by 50% was determined graphically.

[4] = test system: pilocarpine-induced secretion of saliva; assay: Effect inhibiting secretion of saliva in the rat; assay type: in vivo, male THOM rats; conditions: iv, 2 mg/kg pilocarpine s.c., urethane anaesthesia, read-out: Inhibition of secretion of saliva (rat) ED50
Description: Secretion of saliva was induced by s.c. administration of 2 mg/kg pilocarpine. The saliva was absorbed using blotting paper, and the area covered by it was determined by planimetry every 5 minutes. The dose of the substance which reduced the volume of saliva by 50% was determined graphically.

[5] = molecular target: T4, muscarinic receptors of the atrium (Cavia porcellus, UniProt H0VRN8); assay: Dissociation constants in vitro on the spontaneously beating right atrium; design: species or system guinea pig; conditions: methacholine agonist, 30 min contact, Arunlakshana and Schild, read-out: Dissociation constant KB, heart
T4 construct: In the isolated, spontaneously beating right atrium, M reduced the heart rate; from tissue; host or cells: guinea pig isolated right atrium
T4 sequence (H0VRN8 1-466): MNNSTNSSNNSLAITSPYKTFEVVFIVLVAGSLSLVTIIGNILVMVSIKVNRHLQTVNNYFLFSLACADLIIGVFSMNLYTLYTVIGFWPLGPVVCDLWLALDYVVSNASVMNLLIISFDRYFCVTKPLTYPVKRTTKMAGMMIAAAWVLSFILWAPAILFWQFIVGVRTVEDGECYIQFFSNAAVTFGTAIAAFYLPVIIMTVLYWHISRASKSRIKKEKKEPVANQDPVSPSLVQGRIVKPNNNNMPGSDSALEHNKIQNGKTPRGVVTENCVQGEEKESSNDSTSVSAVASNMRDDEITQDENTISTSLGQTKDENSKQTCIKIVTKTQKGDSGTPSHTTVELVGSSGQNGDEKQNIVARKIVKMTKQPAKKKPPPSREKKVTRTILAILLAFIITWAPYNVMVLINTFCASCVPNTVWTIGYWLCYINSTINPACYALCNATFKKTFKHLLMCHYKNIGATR
Description: (§1) Dissociation constants (KB values) were determined "in vitro" on the ileum and spontaneously beating atrium of the guinea pig. The ileum was removed and incubated in Krebs-Henseleit solution in an organ bath. Contractions were induced by increasing concentrations of methacholine (M) in such a way that it was possible to construct complete concentration-effect curves. Then M was washed out, the substance to be investigated was added and left in contact for 30 minutes, and again a concentration-effect curve with M was constructed.
Dissociation constants for the muscarinic receptors of the atrium were obtained in the same way as described above. Comparison of the dissociation constants determined in the two tissues permitted cardioselective substances to be identified.

[6] = molecular target: T5, muscarinic receptors, ileum (Cavia porcellus, UniProt H0W1Z3); assay: Dissociation constants in vitro on the ileum; design: species or system guinea pig; conditions: ileum contractions; methacholine agonist; 30 min contact; Arunlakshana and Schild; read-out: Dissociation constant KB, ileum
T5 construct: The ileum was removed and incubated in Krebs-Henseleit solution in an organ bath; from tissue; host or cells: guinea pig isolated ileum
Description: as §1

[7] = molecular target: T6, muscarinic receptors, heart atrium (Rattus norvegicus, UniProt P10980); assay: Receptor binding assay in vivo, heart atrium; design: species or system female rats; conditions: iv, 0.5 h, read-out: ID50, heart atrium
T6 construct: the heart, the bronchi and the lacrimal glands were removed; from tissue; host or cells: rat heart atrium, labelled in vivo
T6 sequence (P10980 1-466): T2 sequence (P10980 1-466)
Description: (§2) Female rats with a body weight of about 200 g were used for these experiments. Before the start of the experiment, the animals were anaesthetised with a dose of 1.25 g/kg urethane. The animals each received the specified dose of the test substance by i.v. injection. After 15 minutes had elapsed 113 ng/kg ^3 H-N-methylscopolamine (^3 H-NMS) were administered in the same way. After a further 15 minutes, the animals were sacrificed, and the heart, the bronchi and the lacrimal glands were removed. These organs were dissolved in Soluene R, and the radioactivity was determined. These measurements were assumed to be the total binding. […] ID50 values were determined for the individual organs from these experiments.

[8] = molecular target: T7, muscarinic receptors, heart ventricle (Rattus norvegicus, UniProt P10980); assay: Receptor binding assay in vivo, heart ventricle; design: species or system female rats; conditions: iv, 0.5 h, read-out: ID50, heart ventricle
T7 construct: the heart, the bronchi and the lacrimal glands were removed; from tissue; host or cells: rat heart ventricle, labelled in vivo
T7 sequence (P10980 1-466): T2 sequence (P10980 1-466)
Description: as §2

[9] = test system: muscarinic receptors, bronchi; assay: Receptor binding assay in vivo, bronchi; design: species or system female rats; conditions: i.v.; inhibition of 50% of specific 3H-NMS binding; 30 min
Description: as §2

[10] = molecular target: T8, muscarinic receptors, lacrimal glands (Rattus norvegicus, UniProt P08483); assay: Receptor binding assay in vivo, lacrimal gland; design: species or system female rats; conditions: iv, 0.5 h, read-out: ID50, lacrimal gland
T8 construct: the heart, the bronchi and the lacrimal glands were removed; from tissue; host or cells: rat lacrimal glands, labelled in vivo
Description: as §2

[11] = molecular target: T9, muscarinic receptors, complete heart (Rattus norvegicus, UniProt P10980); assay: biochemical
T9 sequence (P10980 1-466): T2 sequence (P10980 1-466)

T8 sequence (P08483 whole entry): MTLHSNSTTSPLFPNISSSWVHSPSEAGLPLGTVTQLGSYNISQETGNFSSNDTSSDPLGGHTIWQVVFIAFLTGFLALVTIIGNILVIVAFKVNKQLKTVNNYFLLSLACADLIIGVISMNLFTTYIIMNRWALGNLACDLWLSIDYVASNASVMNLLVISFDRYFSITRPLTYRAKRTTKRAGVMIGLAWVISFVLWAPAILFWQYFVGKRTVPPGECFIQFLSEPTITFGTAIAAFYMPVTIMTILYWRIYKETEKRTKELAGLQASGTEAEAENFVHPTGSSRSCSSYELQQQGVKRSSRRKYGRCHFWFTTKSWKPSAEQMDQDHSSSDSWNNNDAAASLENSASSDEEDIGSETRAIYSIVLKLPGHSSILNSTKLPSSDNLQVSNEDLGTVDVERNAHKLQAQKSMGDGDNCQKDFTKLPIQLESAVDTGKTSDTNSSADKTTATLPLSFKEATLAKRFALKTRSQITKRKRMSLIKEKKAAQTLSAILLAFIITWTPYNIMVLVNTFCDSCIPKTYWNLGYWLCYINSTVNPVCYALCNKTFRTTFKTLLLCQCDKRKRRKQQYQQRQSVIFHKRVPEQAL
T1 sequence (P08483 whole entry): as above
T5 sequence (H0W1Z3 1-590): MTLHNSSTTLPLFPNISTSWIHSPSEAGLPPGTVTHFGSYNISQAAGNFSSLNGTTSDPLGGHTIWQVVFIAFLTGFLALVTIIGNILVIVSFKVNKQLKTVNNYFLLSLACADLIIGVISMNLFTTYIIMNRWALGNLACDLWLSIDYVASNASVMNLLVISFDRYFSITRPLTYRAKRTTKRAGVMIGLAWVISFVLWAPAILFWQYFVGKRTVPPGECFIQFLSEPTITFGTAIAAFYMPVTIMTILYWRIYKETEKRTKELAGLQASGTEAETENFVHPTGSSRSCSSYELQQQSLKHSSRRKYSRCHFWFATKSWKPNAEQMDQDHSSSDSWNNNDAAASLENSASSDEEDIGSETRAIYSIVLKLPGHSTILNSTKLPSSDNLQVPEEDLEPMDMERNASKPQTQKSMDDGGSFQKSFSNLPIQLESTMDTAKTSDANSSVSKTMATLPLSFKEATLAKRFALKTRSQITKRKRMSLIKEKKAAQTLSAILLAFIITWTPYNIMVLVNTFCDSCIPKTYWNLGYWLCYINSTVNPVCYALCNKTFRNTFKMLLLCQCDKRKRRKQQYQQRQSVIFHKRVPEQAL

Structure (SMILES) | IC50 [1] [µM] | IC50 [2] [µM] | ED50 ([3]; intravenous, read-out: Tachycardia (dog) ED50 intravenous) [mg/kg] | ED50 ([3]; oral, read-out: Tachycardia (dog) ED50 oral) [mg/kg] | Ratio ED50 p.o./ED50 i.v. ([3]; tachycardia, conscious dog) | ED50 (M2; 50% reduction of vagal bradycardia) [mg/kg] | ED50 (M1; 50% reduction of McN-A-343 (0.3 mg/kg i.v.) blood pressure increase) [mg/kg] | ED50 [4] [mg/kg] | Kb [5] [µM] | Kb [6] [µM] | ED50 [7] [mg/kg] | ED50 [8] [mg/kg] | ID50, bronchi [9] [mg/kg] | ED50 [10] [mg/kg] | IC50 [11] [µM] | ED50 (M2) [mg/kg] | ED50 (M1) [mg/kg]
CCN(CC)CC1CCCCN1CC(=O)N1c2cc(Cl)ccc2C(=O)Nc2cccnc21 (stereo not drawn) [Substance A, 9-chloro-11-[[2-[(diethylamino)methyl]-1-piperidinyl]-acetyl]-5,11-dihydro-6H-pyrido[2,3-b]-[1,4]benzodiazepin-6-one] | 0.5 | 1.5 | 0.17 | 0.38 | 2 | 0.077 | 1.48 | 7.57 | 0.0148 | 0.513 | 0.6 | 0.3 | 8.0 | 30 | 0.05 | – | –
CCN(CC)CC1CCCCN1CC(=O)N1c2ccccc2C(=O)Nc2cccnc21 (stereo not drawn) [Substance B, 11-[[2-[(diethylamino)methyl]-1-piperidinyl]acetyl]-5,11-dihydro-6H-pyrido[2,3-b][1,4]benzodiazepin-6-one] | – | – | – | – | – | – | – | – | – | – | – | – | – | 30 | – | – | –
CN1CCN(CC(=O)N2c3ccccc3C(=O)Nc3cccnc32)CC1 [Substance C, 5,11-dihydro-11-[(4-methyl-1-piperazinyl)acetyl]-6H-pyrido[2,3-b][1,4]benzodiazepin-6one] | – | – | – | – | – | – | – | 0.084 | – | – | – | – | – | – | – | – | –
CN1[C@@H]2CC[C@H]1CC(OC(=O)C(CO)c1ccccc1)C2 (stereo partly drawn) [Substance D, atropine, reference compound] | – | – | – | – | – | – | – | – | 0.00141 | – | 0.08 | 0.03 | 0.1 | 0.2 | – | 0.004 | 0.016
